Test results from patent publication US12044684B2, “Methods for diagnosing an autistic spectrum disorder” (QATAR UNIVERSITY, priority 2018, dated 2024).

Test: Renal clearance (CL) of free adducts and unmodified amino acids deduced from plasma and spot urine
Assay type: in vivo, human
Source text: In one embodiment, renal clearance amino acid adducts is deduced from the concentration of an amino acid adduct detected in a plasma and urine sample according to the following equation: CL (μl/mg creatinine or ml/mg creatinine)=[Analyte]Urine (nmol/mg creatinine)/[Analyte]Plasma (pmol/ml or nmol/ml).
Oxidation, nitration and glycation adduct residues are normalised to their amino acid residue precursors and given as mmol/mol amino acid modified; and related free adducts are given in nM. […] Renal clearance (CL) of glycation, oxidation and nitration free adducts and unmodified amino acids was deduced from plasma and spot urine collections: CL (μl/mg creatinine or ml/mg creatinine)=[Analyte]Urine (nmol/mg creatinine)/[Analyte]Plasma (pmol/ml or nmol/ml).

[1] = children with ASD with respect to healthy controls

Row | SMILES | renal clearance, change [1] | other results
1 | N=C(NCCC[C@H](N)C(=O)O)NCC(=O)O [CMA, Nω-carboxymethylarginine] | – | decrease in renal clearance (CL) (in vivo): 50%; renal clearance, change (in vivo): decreased
2 | NC(Cc1ccc(O)c(-c2cc(CC(N)C(=O)O)ccc2O)c1)C(=O)O (stereo not drawn) [DT, dityrosine] | decreased | –
3 | N[C@@H](CCCCN1C[C@@H](O)[C@@H](O)CC2NC(=NCCC[C@H](N)C(=O)O)N=C21)C(=O)O (stereo partly drawn) [GSP, glucosepane] | decreased | –
4 | NC(CC(=O)c1ccccc1NC=O)C(=O)O (stereo not drawn) [NFK, N-formylkynurenine] | increased | –
5 | N=C(N)NCCC[C@H](N)C(=O)O [arg, arginine] | decreased | decrease in renal clearance (CL) (children with ASD compared to healthy control, P<0.001): 32%
6 | N[C@@H](CCC(=O)O)C(=O)O [glu, glutamate] | decreased | –
7 | CC(C)C[C@H](N)C(=O)O [leu, leucine] | decreased | –
8 | N[C@@H](Cc1ccccc1)C(=O)O [phe, phenylalanine] | decreased | –
9 | C[C@@H](O)[C@H](N)C(=O)O [thr, threonine] | decreased | –
10 | N[C@@H](Cc1c[nH]c2ccccc12)C(=O)O [trp, tryptophan] | increased | –
